# Experiments:
# P2X purinoceptor 7 [1] = biological target: T1, P2X purinoceptor 7 (Homo sapiens, UniProt Q99572); test: Antagonist activity at human P2X7 receptor expressed in human U373 cells assessed as inhibition of BzATP-induced Yo-Pro uptake; format: functional, cell-based, U-373MG ATCC
# T1 sequence (Q99572 whole entry): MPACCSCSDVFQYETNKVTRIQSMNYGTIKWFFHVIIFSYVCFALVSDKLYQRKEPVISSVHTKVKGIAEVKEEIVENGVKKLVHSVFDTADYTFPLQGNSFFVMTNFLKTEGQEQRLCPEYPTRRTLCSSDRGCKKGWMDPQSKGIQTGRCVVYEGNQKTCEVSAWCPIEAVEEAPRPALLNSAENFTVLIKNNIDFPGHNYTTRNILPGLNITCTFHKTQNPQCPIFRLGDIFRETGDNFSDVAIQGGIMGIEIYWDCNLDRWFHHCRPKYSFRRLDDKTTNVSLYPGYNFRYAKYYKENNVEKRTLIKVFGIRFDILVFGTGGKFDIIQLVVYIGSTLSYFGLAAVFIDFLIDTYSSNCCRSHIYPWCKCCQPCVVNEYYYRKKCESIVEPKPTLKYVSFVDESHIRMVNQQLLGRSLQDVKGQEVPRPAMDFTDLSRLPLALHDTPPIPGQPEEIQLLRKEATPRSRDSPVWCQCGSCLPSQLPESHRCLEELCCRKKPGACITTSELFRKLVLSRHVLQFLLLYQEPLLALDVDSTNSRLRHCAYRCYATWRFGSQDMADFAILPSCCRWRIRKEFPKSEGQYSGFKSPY
# P2X purinoceptor 7 [2] = biological target: T1, P2X purinoceptor 7; test: Antagonist activity at human P2X7 receptor expressed in HEK293 cells assessed as inhibition of BzATP-induced calcium influx; format: functional, cell-based
# P2X purinoceptor 7 [3] = biological target: T2, P2X purinoceptor 7 (Rattus norvegicus, UniProt Q64663); test: Activity at rat P2X7 receptor expressed in HEK cells assessed as effect on BzATP-induced ethidium uptake; format: cell-based, HEK293
# T2 sequence (Q64663 whole entry): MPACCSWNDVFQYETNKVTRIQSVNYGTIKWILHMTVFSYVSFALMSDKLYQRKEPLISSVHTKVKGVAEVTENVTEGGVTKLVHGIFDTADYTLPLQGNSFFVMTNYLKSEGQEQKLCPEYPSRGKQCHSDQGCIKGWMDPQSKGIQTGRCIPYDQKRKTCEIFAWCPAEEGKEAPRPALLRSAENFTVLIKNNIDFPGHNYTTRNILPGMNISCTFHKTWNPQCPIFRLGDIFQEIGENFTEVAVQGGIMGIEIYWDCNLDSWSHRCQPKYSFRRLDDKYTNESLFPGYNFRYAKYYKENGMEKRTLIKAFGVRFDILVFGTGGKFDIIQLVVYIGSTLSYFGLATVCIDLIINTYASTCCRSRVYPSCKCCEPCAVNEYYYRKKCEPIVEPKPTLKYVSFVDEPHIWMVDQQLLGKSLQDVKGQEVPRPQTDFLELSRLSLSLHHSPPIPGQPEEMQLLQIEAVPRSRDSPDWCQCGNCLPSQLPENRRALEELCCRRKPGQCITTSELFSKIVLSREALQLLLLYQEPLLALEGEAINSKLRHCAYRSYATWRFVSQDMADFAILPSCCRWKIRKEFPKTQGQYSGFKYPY
# [4] = Metabolic stability in rat hepatocytes assessed as intrinsic clearance assessed per million cells; format: ADME, cell-based, Liver, Hepatocyte
# [5] = Plasma clearance in rat; format: ADME, organism-based
# [6] = Half life in rat; format: ADME, organism-based; settings: in vivo
# [7] = Volume of distribution at steady state in rat; format: ADME, organism-based; settings: in vivo, read-out: Vdss
# P2X purinoceptor 7 [8] = biological target: T1, P2X purinoceptor 7; test: Antagonist activity at P2X7 receptor in human THP1 cells assessed as inhibition of BzATP-induced ethidium uptake; format: functional, cell-based, THP-1
# [9] = Metabolic stability in human liver microsomes assessed as half life; format: ADME, Microsome
# [10] = Oral bioavailability in rat; format: ADME, organism-based; settings: in vivo
# P2X purinoceptor 7 [11] = biological target: T1, P2X purinoceptor 7; test: Antagonist activity at P2X7 receptor in human THP1 cells assessed as effect on BzATP-induced Yo-Pro uptake; format: functional, cell-based, THP-1
# [12] = biological target: T3, P2X purinoceptor 7 (Homo sapiens) (UniProt Q99572); settings: HEK293, at 3 µM
# T3 sequence (whole entry): T1 sequence (Q99572 whole entry)
structure (smiles),measurement,setting,value
c1ccc(C2=N[C@@H](c3ccccc3)[C@@H](c3ccccc3)N2)cc1,IC50,P2X purinoceptor 7 [1],3980 nM
Cc1ccccc1CCC1=N[C@H](c2ccccc2)[C@H](c2ccccc2)N1,IC50,P2X purinoceptor 7 [1],63.1 nM
CC(CC1=N[C@H](c2ccccc2)[C@H](c2ccccc2)N1)c1ccccc1 (stereo partly drawn),IC50,P2X purinoceptor 7 [1],31.6 nM
Fc1cccc(COC2=N[C@H](c3ccccc3)[C@H](c3ccccc3)N2)c1,IC50,P2X purinoceptor 7 [1],200 nM
CN([C@@H](Cc1ccc(OS(=O)(=O)c2cccc3cnccc23)cc1)C(=O)N1CCN(c2ccc(Cl)cc2)CC1)S(=O)(=O)c1cccc2cnccc12,IC50,P2X purinoceptor 7 [2],100 nM
Clc1ccc(CCC2=N[C@H](c3ccccc3)[C@H](c3ccccc3)N2)cc1,IC50,P2X purinoceptor 7 [1],> 1000 nM
O=C(CNS(=O)(=O)c1cccc2cnccc12)N1CCN(Cc2ccccc2)CC1,IC50,P2X purinoceptor 7 [2],31.6 nM
CN([C@@H](Cc1ccc(OS(=O)(=O)c2cccc3cnccc23)cc1)C(=O)N1CCN(Cc2ccccc2)CC1)S(=O)(=O)c1cccc2cnccc12,IC50,P2X purinoceptor 7 [2],20 nM
Clc1cccc(-n2ncnc2NCc2cccnc2N2CCCC2)c1Cl,IC50,P2X purinoceptor 7 [3],25.1 nM
C[C@@]1(c2cccc(F)c2)N=C(NCc2cccc(F)c2)N[C@@H]1c1cccc(F)c1,IC50,P2X purinoceptor 7 [1],39.8 nM
c1ccc(CCCC2=N[C@H](c3ccccc3)[C@H](c3ccccc3)N2)cc1,IC50,P2X purinoceptor 7 [1],501 nM
O=C(NCC12CC3CC(CC(C3)C1)C2)c1cc(Cl)ccc1Cl,hepatocyte CLint,[4],> 100 µL/min/1e6 cells
same,clearance,[5],100 mL/min/kg
same,half-life,[6],0.5 h
same,Vd,[7],3 L/kg
O=C(CNS(=O)(=O)c1cccc2cnccc12)N1CCN(c2ccc([N+](=O)[O-])cc2)CC1,IC50,P2X purinoceptor 7 [2],20 nM
CN([C@@H](Cc1ccc(OS(=O)(=O)c2cccc3cnccc23)cc1)C(=O)N1CCC(Cc2ccccc2)CC1)S(=O)(=O)c1cccc2cnccc12,IC50,P2X purinoceptor 7 [2],63.1 nM
C=C1C2(C(=O)NNc3ccccc3)CCC(C2)C1(C)C (stereo not drawn),IC50,P2X purinoceptor 7 [3],50.1 nM
same,IC50,P2X purinoceptor 7 [8],50.1 nM
Cc1ccccc1Nc1ncnn1-c1cccc(Cl)c1Cl,IC50,P2X purinoceptor 7 [3],251 nM
same,IC50,P2X purinoceptor 7 [8],20 nM
c1ccc(CCCCC2=N[C@H](c3ccccc3)[C@H](c3ccccc3)N2)cc1,IC50,P2X purinoceptor 7 [1],631 nM
C[C@H](CO)n1ccc2c(NC(=O)Cc3ccc(Cl)c(C(F)(F)F)c3)cccc2c1=O,IC50,P2X purinoceptor 7 [8],1.26 nM
same,half-life,[9],1 h
same,bioavailability,[10],25%
O=C([C@H](Cc1ccc(OS(=O)(=O)c2cccc3cnccc23)cc1)NS(=O)(=O)c1cccc2cnccc12)N1CCN(c2ccc(F)cc2)CC1,IC50,P2X purinoceptor 7 [2],6.31 nM
O=C(NCC1(O)CCCCCC1)c1cc(-c2cc[nH]n2)ccc1Cl,IC50,P2X purinoceptor 7 [11],200 nM
O=C(CNS(=O)(=O)c1cccc2cnccc12)N1CCN(c2ccccc2F)CC1,IC50,P2X purinoceptor 7 [2],12.6 nM
c1ccc([C@H]2N=C(C3Cc4ccccc4C3)N[C@H]2c2ccccc2)cc1,IC50,P2X purinoceptor 7 [1],31.6 nM
Cc1ccc(-c2ccc(Cl)c(C(=O)NCC3(O)CCCC(C)(C)C3)c2)nc1 (stereo not drawn),IC50,P2X purinoceptor 7 [11],10 nM
Fc1cccc(CNC2=N[C@@H](c3ccccc3)[C@@H](c3ccccc3)N2)c1,IC50,P2X purinoceptor 7 [1],100 nM
Cc1cccc([C@H]2NC(NCc3cccc(F)c3)=N[C@H]2c2cccc(C)c2)c1,IC50,P2X purinoceptor 7 [1],126 nM
Clc1cccc(-n2cnnc2NCc2cccnc2N2CCCC2)c1Cl,IC50,P2X purinoceptor 7 [3],12.6 nM
same,IC50,P2X purinoceptor 7 [8],15.8 nM
CC(C)(C)OC(=O)N1CCN(C(=O)[C@H](Cc2ccc(OS(=O)(=O)c3ccccc3)cc2)NC(=O)OCc2ccccc2)CC1,inhibition,[12],59%
CC(C)(C)OC(=O)N1CCN(C(=O)[C@H](Cc2ccc(OS(=O)(=O)c3cccc4cccnc34)cc2)NS(=O)(=O)c2ccccc2)CC1,inhibition,[12],< 10%
Fc1cccc(CC2=N[C@H](c3ccccc3)[C@H](c3ccccc3)N2)c1,IC50,P2X purinoceptor 7 [1],79.4 nM
Clc1ccccc1CCC1=N[C@@H](c2ccccc2)[C@@H](c2ccccc2)N1,IC50,P2X purinoceptor 7 [1],63.1 nM
Cc1ccccc1CC1=N[C@H](c2ccccc2)[C@H](c2ccccc2)N1,IC50,P2X purinoceptor 7 [1],316 nM
Cc1ccccc1N1CCN(C(=O)[C@H](Cc2ccc(OS(=O)(=O)c3cccc4cnccc34)cc2)N(C)S(=O)(=O)c2cccc3cnccc23)CC1,IC50,P2X purinoceptor 7 [2],15.8 nM
Clc1cccc(CCC2=N[C@H](c3ccccc3)[C@H](c3ccccc3)N2)c1,IC50,P2X purinoceptor 7 [1],126 nM
Fc1ccccc1CC1=N[C@H](c2ccccc2)[C@H](c2ccccc2)N1,IC50,P2X purinoceptor 7 [1],631 nM
Fc1cccc(CNC2=N[C@@H](c3ccccc3Cl)[C@@H](c3ccccc3Cl)N2)c1,IC50,P2X purinoceptor 7 [1],398 nM
CC(C)(CC1=N[C@H](c2ccccc2)[C@H](c2ccccc2)N1)c1ccccc1,IC50,P2X purinoceptor 7 [1],10 nM
Fc1cccc(CSC2=N[C@@H](c3ccccc3)[C@@H](c3ccccc3)N2)c1,IC50,P2X purinoceptor 7 [1],200 nM
O=C(NNc1cccc2ncccc12)C12CC3CC(CC(C3)C1)C2,IC50,P2X purinoceptor 7 [3],39.8 nM
same,IC50,P2X purinoceptor 7 [8],10 nM
O=C(NCC12CC3CC(CC(C3)C1)C2)c1ccccc1Cl,hepatocyte CLint,[4],> 100 µL/min/1e6 cells
CC(C)(C)OC(=O)N1CCN(C(=O)[C@H](Cc2ccc(OS(=O)(=O)c3cccc4cccnc34)cc2)NS(C)(=O)=O)CC1,inhibition,[12],< 10%
Fc1ccc(CC2=N[C@H](c3ccccc3)[C@H](c3ccccc3)N2)cc1,IC50,P2X purinoceptor 7 [1],79.4 nM
CC(C)(C)OC(=O)N1CCN(C(=O)[C@H](Cc2ccc(OS(=O)(=O)c3cccc4cccnc34)cc2)NC(=O)c2ccccc2)CC1,inhibition,[12],13%
Cc1ccc2c(=O)n([C@H](C)CO)ccc2c1NC(=O)Cc1ccc(C(F)(F)F)c(F)c1,half-life,[9],1.5 h
same,bioavailability,[10],25%
CN([C@@H](Cc1ccc(OS(=O)(=O)c2cccc3cnccc23)cc1)C(=O)N1CCN(CCc2ccccc2)CC1)S(=O)(=O)c1cccc2cnccc12,IC50,P2X purinoceptor 7 [2],631 nM
O=C(CC12CC3CC(CC(C3)C1)C2)Nc1ccccc1,Kb,P2X purinoceptor 7 [8]; read-out: pA2 (converted),39.8 nM
same,hepatocyte CLint,[4],5 µL/min/1e6 cells
same,clearance,[5],47 mL/min/kg
same,half-life,[6],1 h
same,Vd,[7],2 L/kg
c1ccc(CCC2=N[C@H](c3ccccc3)[C@H](c3ccccc3)N2)cc1,IC50,P2X purinoceptor 7 [1],79.4 nM
CN([C@@H](Cc1ccc(OS(=O)(=O)c2cccc3cnccc23)cc1)C(=O)N1CCN(c2cccc(Cl)c2)CC1)S(=O)(=O)c1cccc2cnccc12,IC50,P2X purinoceptor 7 [2],12.6 nM
COc1cccc(NC(=O)c2cccc(Cc3c(C)nn(CCO)c3-c3ccccc3)c2)c1,IC50,P2X purinoceptor 7 [2],≤ 200 nM
Cc1cc(-c2ccc(Cl)c(C(=O)NCC3(O)CCCCCC3)c2)nn1CC(=O)NCCN(C)C,IC50,P2X purinoceptor 7 [11],3.16 nM
COc1ccc(CCC2=N[C@H](c3ccccc3)[C@H](c3ccccc3)N2)cc1,IC50,P2X purinoceptor 7 [1],> 3160 nM
O=C(CNS(=O)(=O)c1cccc2cnccc12)N1CCN(c2ccc(F)cc2)CC1,IC50,P2X purinoceptor 7 [2],63.1 nM
CN([C@@H](Cc1ccc(OS(=O)(=O)c2cccc3cnccc23)cc1)C(=O)N1CCN(c2ccc(F)cc2)CC1)S(=O)(=O)c1cccc2cnccc12,IC50,P2X purinoceptor 7 [2],1.26 nM
O=C(N[C@@H](Cc1ccc(OS(=O)(=O)c2ccccc2)cc1)C(=O)N1CCN(S(=O)(=O)c2ccccc2)CC1)OCc1ccccc1,inhibition,[12],< 10%
CC(C)(C)OC(=O)N1CCN(C(=O)[C@H](Cc2ccc(OS(=O)(=O)c3cccc4cnccc34)cc2)NC(=O)OCc2ccccc2)CC1,inhibition,[12],43%
